# Laboratory results as given in PubChem BioAssay AID2060607 (Molecular Pharmacology Branch, DTP, NCI, 2025).
# “And” between values parts separate entries of the source, which are not always exact repeats. Equal values may be shown once.
# System: 876862-298-R-J1-PDC complex spheroids, viability % test/control
# Assay: Anticancer human tumor 876862-298-R-J1-PDC patient-derived endometrial carcinoma cell line growth inhibition [CLK]
# Conditions: for viability, T/C: stronger effect = lower value
# How it was run: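 Multi-cell-type spheroids combined patient-derived tumor cells with HUVEC endothelial cells and human mesenchymal stem cells. Paired agents were dosed in half-log steps down from about clinical Cmax, or from 10 microM where Cmax was unknown.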
# [1] = curve of first compound, second compound 0.0316 µM
# [2] = curve of first compound, second compound 0.1 µM
# [3] = curve of first compound, second compound 0.316 µM
# [4] = curve of first compound, second compound 1 µM
# [5] = curve of first compound, second compound 3.16 µM
# [6] = curve of first compound, second compound 10 µM
# [7] = second compound 0.0316 µM, first compound 0.0316 µM
# [8] = second compound 0.0316 µM, first compound 0.1 µM
# [9] = second compound 0.0316 µM, first compound 0.316 µM
# [10] = second compound 0.0316 µM, first compound 1 µM
# [11] = second compound 0.0316 µM, first compound 3.16 µM
# [12] = second compound 0.0316 µM, first compound 10 µM
# [13] = second compound 0.1 µM, first compound 0.0316 µM
# [14] = second compound 0.1 µM, first compound 0.1 µM
# [15] = second compound 0.1 µM, first compound 0.316 µM
# [16] = second compound 0.1 µM, first compound 1 µM
# [17] = second compound 0.1 µM, first compound 3.16 µM
# [18] = second compound 0.1 µM, first compound 10 µM
# [19] = second compound 0.316 µM, first compound 0.0316 µM
# [20] = second compound 0.316 µM, first compound 0.1 µM
# [21] = second compound 0.316 µM, first compound 0.316 µM
# [22] = second compound 0.316 µM, first compound 1 µM
# [23] = second compound 0.316 µM, first compound 3.16 µM
# [24] = second compound 0.316 µM, first compound 10 µM
# [25] = second compound 1 µM, first compound 0.0316 µM
# [26] = second compound 1 µM, first compound 0.1 µM
# [27] = second compound 1 µM, first compound 0.316 µM
# [28] = second compound 1 µM, first compound 1 µM
# [29] = second compound 1 µM, first compound 3.16 µM
# [30] = second compound 1 µM, first compound 10 µM
# [31] = second compound 3.16 µM, first compound 0.0316 µM
# [32] = second compound 3.16 µM, first compound 0.1 µM
# [33] = second compound 3.16 µM, first compound 0.316 µM
# [34] = second compound 3.16 µM, first compound 1 µM
# [35] = second compound 3.16 µM, first compound 3.16 µM
# [36] = second compound 3.16 µM, first compound 10 µM
# [37] = second compound 10 µM, first compound 0.0316 µM
# [38] = second compound 10 µM, first compound 0.1 µM
# [39] = second compound 10 µM, first compound 0.316 µM
# [40] = second compound 10 µM, first compound 1 µM
# [41] = second compound 10 µM, first compound 3.16 µM
# [42] = second compound 10 µM, first compound 10 µM
# 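Also: spheroids exposed to drugs for 7 days before readout.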
# 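For viability, T/C in this document: 100% = DMSO vehicle control wells.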
compound,measurement,setting,value
CC(=O)O[C@H]1C(=O)[C@@]2(C)[C@H]([C@H](OC(=O)c3ccccc3)[C@]3(O)C[C@H](OC(=O)[C@H](O)[C@@H](NC(=O)c4ccccc4)c4ccccc4)C(C)=C1C3(C)C)[C@]1(OC(C)=O)CO[C@@H]1C[C@@H]2O + CN1CCN(c2cc(C(=O)Nc3cc4cc(-c5cnn(C)c5)ccc4cn3)ccn2)CC1,IC50,[1],< 31.6 nM
same,IC50,[2],< 31.6 nM
same,IC50,[3],< 31.6 nM
same,IC50,[4],< 31.6 nM
same,IC50,[5],< 31.6 nM
same,IC50,[6],< 31.6 nM
same,"viability, T/C",[7],32.4%
same,"viability, T/C",[8],28.7%
same,"viability, T/C",[9],30.5%
same,"viability, T/C",[10],28.1%
same,"viability, T/C",[11],30.7%
same,"viability, T/C",[12],34.8%
same,"viability, T/C",[13],28.6%
same,"viability, T/C",[14],24.5%
same,"viability, T/C",[15],22.7%
same,"viability, T/C",[16],21.3%
same,"viability, T/C",[17],23.5%
same,"viability, T/C",[18],24.1%
same,"viability, T/C",[19],1.74%
same,"viability, T/C",[20],1.82%
same,"viability, T/C",[21],2.01%
same,"viability, T/C",[22],2.21%
same,"viability, T/C",[23],2.68%
same,"viability, T/C",[24],4.53%
same,"viability, T/C",[25],0.82%
same,"viability, T/C",[26],0.89%
same,"viability, T/C",[27],0.6%
same,"viability, T/C",[28],0.59%
same,"viability, T/C",[29],0.84%
same,"viability, T/C",[30],0.56%
same,"viability, T/C",[31],0.93%
same,"viability, T/C",[32],0.84%
same,"viability, T/C",[33],0.96%
same,"viability, T/C",[34],0.79%
same,"viability, T/C",[35],0.78%
same,"viability, T/C",[36],0.55%
same,"viability, T/C",[37],0.6%
same,"viability, T/C",[38],0.59%
same,"viability, T/C",[39],0.57%
same,"viability, T/C",[40],0.58%
same,"viability, T/C",[41],0.66%
same,"viability, T/C",[42],0.58%
O=C(c1cc(Cc2n[nH]c(=O)c3ccccc23)ccc1F)N1CCN(C(=O)C2CC2)CC1 + CNC(=O)c1ccc(Nc2nc(OC3CCCC3)c3c(-c4ccc5nc(C)oc5c4)c[nH]c3n2)c(OC)c1,IC50,[1],> 10000 nM
same,IC50,[2],2090 nM
same,IC50,[3],< 31.6 nM
same,IC50,[4],< 31.6 nM
same,IC50,[5],< 31.6 nM
same,IC50,[6],< 31.6 nM
same,"viability, T/C",[7],70.5%
same,"viability, T/C",[8],97%
same,"viability, T/C",[9],84.5%
same,"viability, T/C",[10],94.7%
same,"viability, T/C",[11],96.8%
same,"viability, T/C",[12],72.6%
same,"viability, T/C",[13],47.4%
same,"viability, T/C",[14],55%
same,"viability, T/C",[15],50.6%
same,"viability, T/C",[16],50.6%
same,"viability, T/C",[17],51.5%
same,"viability, T/C",[18],47.3%
same,"viability, T/C",[19],49.1%
same,"viability, T/C",[20],44.6%
same,"viability, T/C",[21],40.6%
same,"viability, T/C",[22],40.6%
same,"viability, T/C",[23],39.4%
same,"viability, T/C",[24],35.9%
same,"viability, T/C",[25],39.1%
same,"viability, T/C",[26],33.7%
same,"viability, T/C",[27],29.6%
same,"viability, T/C",[28],34.1%
same,"viability, T/C",[29],31.3%
same,"viability, T/C",[30],26.1%
same,"viability, T/C",[31],25.5%
same,"viability, T/C",[32],23.7%
same,"viability, T/C",[33],20.4%
same,"viability, T/C",[34],25.3%
same,"viability, T/C",[35],23.3%
same,"viability, T/C",[36],14.3%
same,"viability, T/C",[37],22%
same,"viability, T/C",[38],21.5%
same,"viability, T/C",[39],20.8%
same,"viability, T/C",[40],19.4%
same,"viability, T/C",[41],23.5%
same,"viability, T/C",[42],14.6%
Nc1ccccc1NC(=O)c1ccc(CNC(=O)OCc2cccnc2)cc1,"viability, T/C",compound 0.0316 µM,99.9% and 95.4%
same,"viability, T/C",compound 0.1 µM,106% and 99.6%
same,"viability, T/C",compound 0.316 µM,105%
same,"viability, T/C",compound 1 µM,91.7% and 106%
same,"viability, T/C",compound 3.16 µM,80.1% and 75.2%
same,"viability, T/C",compound 10 µM,39.1% and 29.7%
same,IC50,curve of compound,7340 nM and 6000 nM
